42 molecules from US8546414B2, “Ion channel modulators and methods of use” (Vertex Pharmaceuticals Incorporated, priority 2004, dated 2013) can be followed below.

Molecules are shown by their SMILES. A value given as a limit tells only on which side of the number the result lay.

For experiment [1], the target named is T1, NaV1.3 (Homo sapiens, UniProt Q9NY46).
T1 construct: expressed in transfected cells; host or cells: HEK293
As to the kind of experiment: VIPR optical membrane potential assay with electrical stimulation, NaV1.3. It is filed as cell-based. Conditions: Table 9, NaV 1.3 receptors. The method, then:
Antagonist properties of test compounds were assessed as follows. Cells expressing the NaV of interest were placed into microtiter plates. After an incubation period, the cells were stained with fluorescent dyes sensitive to the transmembrane potential. The test compounds were added to the microtiter plate. The cells were stimulated with either chemical or electrical means to evoke a NaV dependent membrane potential change from unblocked channels, which was detected and measured with trans-membrane potential-sensitive dyes. Antagonists were detected as a decreased membrane potential response to the stimulus.
VIPR® Optical Membrane Potential Assay Method with Electrical Stimulation
The following is an example of how NaV1.3 inhibition activity is measured using the optical membrane potential method#2. Other subtypes are performed in an analogous mode in a cell line expressing the NaV of interest.
HEK293 cells stably expressing NaV1.3 are plated into 96-well microtiter plates. After an appropriate incubation period, the cells are stained with the voltage sensitive dyes CC2-DMPE/DiSBAC2(3) as follows.
2X CC2-DMPE=20 μM CC2-DMPE: 10 mM CC2-DMPE is vortexed with an equivalent volume of 10% pluronic, followed by vortexing in required amount of HBSS containing 10 mM HEPES. Each cell plate will require 5 mL of 2×CC2-DMPE. 50 μL of 2×CC2-DMPE is added to wells containing washed cells, resulting in a 10 μM final staining concentration. The cells are stained for 30 minutes in the dark at RT.
2X DISBAC2(3) with ABSC1=6 μM DISBAC2(3) and 1 mM ABSC1: The required amount of 10 mM DISBAC2(3) is added to a 50 ml conical tube and mixed with 1 μL 10% pluronic for each mL of solution to be made and vortexed together. Then HBSS/HEPES is added to make up 2× solution. Finally, the ABSC1 is added.
The 2X DiSBAC2(3) solution can be used to solvate compound plates. Note that compound plates are made at 2× drug concentration. Wash stained plate again, leaving residual volume of 50 Add 50 μL/well of the 2X DiSBAC2(3) w/ABSC1. Stain for 30 minutes in the dark at RT.
The instrument comprises a microtiter plate handler, an optical system for exciting the coumarin dye while simultaneously recording the coumarin and oxonol emissions, a waveform generator, a current- or voltage-controlled amplifier, and a device for inserting electrodes in well. Under integrated computer control, this instrument passes user-programmed electrical stimulus protocols to cells within the wells of the microtiter plate.
• 1. Insert or use electrodes into each well to be assayed. • 2. Use the current-controlled amplifier to deliver stimulation wave pulses for 3 s. Two seconds of pre-stimulus recording are performed to obtain the un-stimulated intensities. Five seconds of post-stimulation recording are performed to examine the relaxation to the resting state. Data Analysis
Data are analyzed and reported as normalized ratios of background-subtracted emission intensities measured in the 460 nm and 580 nm channels. Background intensities are then subtracted from each assay channel. Background intensities are obtained by measuring the emission intensities during the same time periods from identically treated assay wells in which there are no cells. The response as a function of time is then reported as the ratios obtained using the following formula: […]
The data is further reduced by calculating the initial (Ri) and final (Rf) ratios. These are the average ratio values during part or all of the pre-stimulation period, and during sample points during the stimulation period. The response to the stimulus R=Rf/Ri is then calculated.
Control responses are obtained by performing assays in the presence of a compound with the desired properties (positive control), such as tetracaine, and in the absence of pharmacological agents (negative control). Responses to the negative (N) and positive (P) controls are calculated as above. The compound antagonist activity A is defined as: […]

Experiment [2] concerns the target T2, CaV2.2 (Homo sapiens, UniProt Q00975).
T2 construct: expressed in transfected cells; host or cells: HEK293
As to the kind of experiment: VIPR optical membrane potential assay with electrical stimulation, CaV2.2. It is filed as cell-based. The following applies: Table 9, CaV 2.2 receptors. In short, it runs like this:
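HEK293 cells stably expressing CaV2.2 stained with CC2-DMPE/DiSBAC2(3) voltage-sensitive dyes (10 μM final CC2-DMPE, 30 min, RT), then compound added and cells electrically stimulated for 3-5 s. Read-out: background-subtracted 460/580 nm emission ratio; response R=Rf/Ri (post- vs pre-stimulus ratio); antagonism seen as reduced response.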

T1 sequence (Q9NY46 whole entry): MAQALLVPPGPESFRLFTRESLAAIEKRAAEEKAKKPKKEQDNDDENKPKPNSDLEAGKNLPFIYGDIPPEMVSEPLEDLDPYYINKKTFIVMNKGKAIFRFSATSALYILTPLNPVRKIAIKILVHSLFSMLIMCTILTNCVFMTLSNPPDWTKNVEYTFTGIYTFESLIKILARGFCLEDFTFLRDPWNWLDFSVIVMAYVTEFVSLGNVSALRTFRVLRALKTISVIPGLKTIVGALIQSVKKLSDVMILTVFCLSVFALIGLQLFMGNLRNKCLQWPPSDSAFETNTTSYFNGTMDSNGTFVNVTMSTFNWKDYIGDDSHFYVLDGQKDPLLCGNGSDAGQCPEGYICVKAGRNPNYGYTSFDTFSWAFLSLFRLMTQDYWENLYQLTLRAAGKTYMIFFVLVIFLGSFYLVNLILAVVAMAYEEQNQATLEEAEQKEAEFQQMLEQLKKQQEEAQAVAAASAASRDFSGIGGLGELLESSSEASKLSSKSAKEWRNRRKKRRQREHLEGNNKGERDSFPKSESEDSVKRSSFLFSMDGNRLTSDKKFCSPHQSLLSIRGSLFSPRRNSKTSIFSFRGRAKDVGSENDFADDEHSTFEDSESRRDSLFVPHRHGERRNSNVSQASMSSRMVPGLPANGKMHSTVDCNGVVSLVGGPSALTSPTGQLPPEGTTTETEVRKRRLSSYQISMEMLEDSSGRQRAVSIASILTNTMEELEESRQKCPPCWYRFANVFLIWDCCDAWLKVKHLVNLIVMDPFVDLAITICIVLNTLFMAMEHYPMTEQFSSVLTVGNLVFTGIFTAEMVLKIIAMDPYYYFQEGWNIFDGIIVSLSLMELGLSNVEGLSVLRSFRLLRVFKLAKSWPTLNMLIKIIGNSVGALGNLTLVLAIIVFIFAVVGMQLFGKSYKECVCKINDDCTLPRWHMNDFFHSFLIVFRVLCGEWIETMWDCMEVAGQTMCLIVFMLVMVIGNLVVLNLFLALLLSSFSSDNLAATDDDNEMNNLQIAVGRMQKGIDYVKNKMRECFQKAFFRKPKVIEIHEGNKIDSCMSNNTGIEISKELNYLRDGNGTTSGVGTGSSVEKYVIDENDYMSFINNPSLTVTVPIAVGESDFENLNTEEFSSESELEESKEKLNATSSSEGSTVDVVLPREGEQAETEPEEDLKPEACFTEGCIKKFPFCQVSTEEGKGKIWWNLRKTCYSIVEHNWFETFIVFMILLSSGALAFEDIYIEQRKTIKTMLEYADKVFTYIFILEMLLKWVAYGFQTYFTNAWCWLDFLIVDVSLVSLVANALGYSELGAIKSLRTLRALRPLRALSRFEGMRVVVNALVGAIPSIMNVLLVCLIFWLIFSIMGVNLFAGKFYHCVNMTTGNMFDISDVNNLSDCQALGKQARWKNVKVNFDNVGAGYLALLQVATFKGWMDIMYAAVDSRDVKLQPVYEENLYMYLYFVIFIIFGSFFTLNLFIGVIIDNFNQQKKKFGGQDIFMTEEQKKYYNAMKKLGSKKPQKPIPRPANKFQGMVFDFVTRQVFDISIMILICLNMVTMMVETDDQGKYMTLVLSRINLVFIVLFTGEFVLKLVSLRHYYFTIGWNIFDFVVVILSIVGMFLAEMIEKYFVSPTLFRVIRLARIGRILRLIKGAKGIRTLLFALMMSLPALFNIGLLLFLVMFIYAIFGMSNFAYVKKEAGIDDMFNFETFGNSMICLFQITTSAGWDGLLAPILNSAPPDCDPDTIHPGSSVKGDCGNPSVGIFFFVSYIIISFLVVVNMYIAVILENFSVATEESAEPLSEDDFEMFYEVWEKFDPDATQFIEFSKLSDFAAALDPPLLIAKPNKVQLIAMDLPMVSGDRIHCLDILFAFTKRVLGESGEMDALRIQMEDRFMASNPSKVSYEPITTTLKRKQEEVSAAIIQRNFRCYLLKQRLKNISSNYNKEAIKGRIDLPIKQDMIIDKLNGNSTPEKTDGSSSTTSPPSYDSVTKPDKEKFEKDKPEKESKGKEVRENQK

Broadly, the IC50 is the concentration at which inhibition is half-maximal. Lower therefore signals higher potency. Take `CCN(Cc1ccccc1)C(=O)c1cnc(N2CCCC(C(N)=O)C2)nc1-c1ccccc1F` (stereo not drawn) [compound 289]: the IC50 in experiment [1] and in experiment [2] was above 10 µM in each case.
With `CCN(Cc1ccccc1)C(=O)c1cnc(N2CCN(C(C)=O)CC2)nc1-c1ccccc1F` [compound 290], the IC50 in experiment [1] and in experiment [2] was above 10 µM each time.
For `CC(=O)NCCNc1ncc(C(=O)N(Cc2ccccc2)C(C)C)c(-c2ccccc2F)n1` [compound 291], the IC50 in experiment [1] and in experiment [2] was above 10 µM throughout.
Turning to `COc1ccc(CCN(C)c2ncc(C(=O)N3CCCC3)c(-c3ccc(C#N)cc3)n2)cc1OC` [compound 292], the IC50 in experiment [1] and in experiment [2] was above 10 µM throughout.
Take `Cc1cccc(-c2nc(N3CCOCC3)ncc2C(=O)NCc2cccc(C(F)(F)F)c2)c1` [compound 293]: the IC50 in experiment [1] and in experiment [2] was above 10 µM each time.
`CCC1CCC(C)N(C(=O)c2cnc(NCCCOC)nc2-c2ccc(C#N)cc2)C1` (stereo not drawn) [compound 294]: the IC50 in experiment [1] and in experiment [2] was above 10 µM throughout.
In the case of `CC(C)CN(C)C(=O)c1cnc(NCCc2cccc(F)c2)nc1-c1ccc(C#N)cc1` [compound 295], the results for the 50% inhibitory concentration (IC50) in experiment [1] and in experiment [2] were above 10 µM and 2 to 10 µM, respectively.
The like results for `COCCCNc1ncc(C(=O)N(Cc2ccccc2)C(C)C)c(-c2ccccc2F)n1` [compound 296] were, in that order, above 10 µM and above 10 µM.
In the same order, the values of `COCCNc1ncc(C(=O)NCC2CCCCC2)c(-c2ccc(-c3ccccc3)cc2)n1` [compound 297] are above 10 µM and above 10 µM.
The like results for `CN(C(=O)c1cnc(NCC2CC2)nc1-c1ccc(C#N)cc1)C1CCCCC1` [compound 298] were, in that order, above 10 µM and above 10 µM.
As for `CCCCNC(=O)c1cnc(N(C)CCc2ccc(OC)c(OC)c2)nc1-c1ccc(C#N)cc1` [compound 299], the IC50 in experiment [1] and in experiment [2] was above 10 µM in each case.
Take `COCCNc1ncc(C(=O)N(Cc2ccccc2)C(C)C)c(-c2ccccc2F)n1` [compound 300]: the IC50 in experiment [1] and in experiment [2] was above 10 µM each time.
On to `CC(C)N(Cc1ccccc1)C(=O)c1cnc(NCc2ccc3c(c2)OCO3)nc1-c1ccccc1F` [compound 301], for which the IC50 in experiment [1] and in experiment [2] was above 10 µM in each case.
In the case of `COc1ccccc1CCNC(=O)c1cnc(N2CCOCC2)nc1-c1ccccc1F` [compound 302], the 50% inhibitory concentration (IC50) in experiment [1] and in experiment [2] was above 10 µM throughout.
With `COCCCNc1ncc(C(=O)N(C)C2CCCCC2)c(-c2ccc(C#N)cc2)n1` [compound 303], the IC50 in experiment [1] and in experiment [2] was above 10 µM in each case.
On to `Cc1cccc(-c2nc(NCc3ccccc3)ncc2C(=O)N2CCOCC2)c1` [compound 304], for which the IC50 in experiment [1] and in experiment [2] was above 10 µM in each case.
Turning to `CCC(C)NC(=O)c1cnc(NCCc2ccc(Cl)cc2)nc1-c1ccccc1F` (stereo not drawn) [compound 305], the concentration for half-maximal inhibition (IC50) in experiment [1] and in experiment [2] was above 10 µM in each case.
Consider `Cc1cccc(-c2nc(NCC3CCCCC3)ncc2C(=O)N2CCOCC2)c1` [compound 306], for which the IC50 in experiment [1] and in experiment [2] was above 10 µM each time.
As for `COCCCNC(=O)c1cnc(N2CCOCC2)nc1-c1cccc(C)c1` [compound 307], the IC50 in experiment [1] and in experiment [2] was above 10 µM each time.
For the molecule `CCN(Cc1cccc(C)c1)C(=O)c1cnc(NCCNC(C)=O)nc1-c1ccccc1F` [compound 308], the concentration for half-maximal inhibition (IC50) in experiment [1] and in experiment [2] was above 10 µM each time.
For the molecule `CCC(C)NC(=O)c1cnc(NC2CCCCC2)nc1-c1ccc(C#N)cc1` (stereo not drawn) [compound 309], the IC50 in experiment [1] and in experiment [2] was above 10 µM throughout.
Take `COCCCNC(=O)c1cnc(NC2CCCCC2)nc1-c1ccc(-c2ccccc2)cc1` [compound 310]: the IC50 in experiment [1] and in experiment [2] was above 10 µM throughout.
For the molecule `CCN(Cc1ccccc1)C(=O)c1cnc(N2CCOCC2)nc1-c1ccc(C#N)cc1` [compound 313], the IC50 in experiment [1] and in experiment [2] was above 10 µM each time.
In the case of `CCN(C)c1ncc(C(=O)NCCOC)c(-c2ccc(C#N)cc2)n1` [compound 314], the half-inhibitory concentration (IC50) in experiment [1] and in experiment [2] was above 10 µM each time.
On to `COc1ccc(CCNc2ncc(C(=O)N3CCC(C)CC3)c(-c3ccc(C#N)cc3)n2)cc1` [compound 316], for which the IC50 in experiment [1] and in experiment [2] was above 10 µM throughout.
As to `CCN(C)C(=O)c1cnc(N2CCOCC2)nc1-c1ccccc1F` [compound 317], the IC50 in experiment [1] and in experiment [2] was above 10 µM throughout.
Turning to `CC(=O)NCCNc1ncc(C(=O)N(Cc2ccccc2)C(C)C)c(-c2ccc(C#N)cc2)n1` [compound 319], the IC50 in experiment [1] and in experiment [2] was above 10 µM each time.
For `CCCCNc1ncc(C(=O)N2CC(C)CC(C)C2)c(-c2ccc(C#N)cc2)n1` (stereo not drawn) [compound 320], the IC50 in experiment [1] and in experiment [2] was above 10 µM in each case.
In the case of `COCCNc1ncc(C(=O)N2CCOCC2)c(-c2cccc(C)c2)n1` [compound 321], the IC50 in experiment [1] and in experiment [2] was above 10 µM each time.
`CC(C)CN(C)C(=O)c1cnc(N2CCCCC2)nc1-c1ccc(C#N)cc1` [compound 322]: the 50% inhibitory concentration (IC50) in experiment [1] and in experiment [2] was above 10 µM each time.
For `O=C(c1cnc(N2CCOCC2)nc1-c1ccccc1F)N1CCCCC1` [compound 323], the IC50 in experiment [1] and in experiment [2] was above 10 µM throughout.
With `COCCCNC(=O)c1cnc(N2CCOCC2)nc1-c1ccccc1F` [compound 324], the IC50 in experiment [1] and in experiment [2] was above 10 µM in each case.
On to `COCCNc1ncc(C(=O)N2CC(C)CC(C)C2)c(-c2cccc(C)c2)n1` (stereo not drawn) [compound 325], for which the IC50 in experiment [1] and in experiment [2] was above 10 µM throughout.
Turning to `CC(C)N(Cc1ccccc1)C(=O)c1cnc(N2CCOCC2)nc1-c1ccccc1F` [compound 326, 4-(2-Fluoro-phenyl)-2-morpholin-4-yl-pyrimidine-5-carboxylic acid benzyl-isopropyl-amide], the IC50 was above 10 µM in experiment [1] and 2 to 10 µM in experiment [2].
The like results for `CCN(Cc1ccccc1)C(=O)c1cnc(NCCCOC)nc1-c1ccccc1F` [compound 327] were, in that order, above 10 µM and above 10 µM.
For `CCC1CCC(C)N(C(=O)c2cnc(NCCc3ccc(OC)cc3)nc2-c2ccc(C#N)cc2)C1` (stereo not drawn) [compound 329], the IC50 in experiment [1] was above 10 µM; in experiment [2] it was 2 to 10 µM.
The like results for `COCCCNc1ncc(C(=O)NCC2CCCCC2)c(-c2cccc(C)c2)n1` [compound 330] were, in that order, above 10 µM and above 10 µM.
In the same order, the values of `CCC(C)NC(=O)c1cnc(N(C)CCc2ccc(OC)c(OC)c2)nc1-c1ccc(C#N)cc1` (stereo not drawn) [compound 331] are above 10 µM and above 10 µM.
In the same order, the values of `CCCCNC(=O)c1cnc(NCCCOC)nc1-c1cccc(C)c1` [compound 332] are above 10 µM and above 10 µM.
As to `CC1CC(C)CN(C(=O)c2cnc(N3CCOCC3)nc2-c2ccc(C#N)cc2)C1` (stereo not drawn) [compound 333], the IC50 in experiment [1] and in experiment [2] was above 10 µM in each case.
Consider `CC(=O)N1CCN(c2ncc(C(=O)N3CCC(C)CC3)c(-c3ccc(-c4ccccc4)cc3)n2)CC1` [compound 334], for which the IC50 in experiment [1] is above 10 µM; in experiment [2] it was 2 to 10 µM.
On to `CCC(C)Nc1ncc(C(=O)N(C)CC)c(-c2ccc(C#N)cc2)n1` (stereo not drawn) [compound 336], for which the IC50 in experiment [1] and in experiment [2] was above 10 µM each time.
